Key:
PKA = conditions: final concentration of 10 μM
SARS virus (FFM-1) = assay type: cell-based
Cytomegalovirus = conditions: HFL1 cells
PRP4 = PRP4 (Homo sapiens, UniProt Q13523); test: Kinase phosphorylation assay, same technique as for SRPK1; assay type: biochemical; conditions: final concentration of 10 μM
[1] = system: Chinese hamster CHL cells; test: Chromosomal screening test for mutagenicity in mammalian cells
sindbis virus = assay type: cell-based
HIV = HIV infection experiment in MT-4 cells, HIVp24 by Lumipulse ELISA; conditions: supernatant after 48 hours
SRPK2 = SRPK2 (Homo sapiens, UniProt P78362); test: Kinase phosphorylation assay, same technique as for SRPK1; assay type: biochemical; conditions: final concentration of 10 μM
PKC = test: as above; assay type: biochemical; conditions: final concentration of 10 μM
SRPK1 = target: T1, SRPK1 (Homo sapiens, UniProt Q96SB4); test: SRPK1 phosphorylation activity assay with RS peptide and [γ-32P]ATP; assay type: biochemical
T1 construct: made in house; host or cells: E. coli

SRp75 protein = test: In vivo inhibition of SR protein phosphorylation and induction of SR protein degradation, Western blot of HA-SRp75; assay type: cell-based, human; conditions: Flp-In-293 cells, SRPIN-1 10, 20, or 50 μM with MG132 10 μM, 15 hours
Experimental: FIG. 4C: Evaluation of in-vivo inhibition of SR protein phosphorylation using SRPIN-1, and evaluation of the induction of the accompanying SR protein degradation. HA-SRp75 plasmid was introduced into Flp-In293 cells. After 36 hours, MG132 (final concentration: 10 μM) and SRPIN-1 (10, 20, or 50 μM) were added to the cells. The cells were incubated for 15 hours and then lysed. After SDS-PAGE, the samples were analyzed by Western blotting using anti-HA antibody. Western analysis was also carried out using an antibody against beta actin as a control protein amount.
HA-SRp75 plasmid (1.0 μg) was introduced into Flp-In-293 cells. After 36 hours, MG132 (final concentration: 10 μM) and SRPIN-1 (10, 20, or 50 μM) were added, and the cells were incubated for 15 hours. Then, the cells were lysed with SDS-PAGE sample buffer. The lysate was used as a protein sample. The sample was fractionated by SDS-PAGE and analyzed by Western blotting using the anti-HA antibody. In addition, as a control for protein amount, Western analysis was carried out using anti-beta actin antibody.

Slc:SD rats = test: Single-dose oral administration toxicity test
Experimental: The toxicity of SRPIN-1 was tested by single-dose oral administration to rats. SRPIN-1 was orally administered at a dose of 125, 250, 500, 1000, or 2000 mg/kg (in a volume of 10 ml per kg) to Slc:SD rats (five weeks old; Japan SLC, Inc.) whose weight gain and general conditions were normal during the acclimatization period. Each group included two males and two females. The animals were fasted from the evening of the day before administration until about four hours after administration. […] Then, SRPIN-1 was likewise orally administered at a dose of 2000 mg/kg to five male and five female Slc:SD rats (five weeks old).

Chain of SRPK2 (P78362 whole entry, species assumed): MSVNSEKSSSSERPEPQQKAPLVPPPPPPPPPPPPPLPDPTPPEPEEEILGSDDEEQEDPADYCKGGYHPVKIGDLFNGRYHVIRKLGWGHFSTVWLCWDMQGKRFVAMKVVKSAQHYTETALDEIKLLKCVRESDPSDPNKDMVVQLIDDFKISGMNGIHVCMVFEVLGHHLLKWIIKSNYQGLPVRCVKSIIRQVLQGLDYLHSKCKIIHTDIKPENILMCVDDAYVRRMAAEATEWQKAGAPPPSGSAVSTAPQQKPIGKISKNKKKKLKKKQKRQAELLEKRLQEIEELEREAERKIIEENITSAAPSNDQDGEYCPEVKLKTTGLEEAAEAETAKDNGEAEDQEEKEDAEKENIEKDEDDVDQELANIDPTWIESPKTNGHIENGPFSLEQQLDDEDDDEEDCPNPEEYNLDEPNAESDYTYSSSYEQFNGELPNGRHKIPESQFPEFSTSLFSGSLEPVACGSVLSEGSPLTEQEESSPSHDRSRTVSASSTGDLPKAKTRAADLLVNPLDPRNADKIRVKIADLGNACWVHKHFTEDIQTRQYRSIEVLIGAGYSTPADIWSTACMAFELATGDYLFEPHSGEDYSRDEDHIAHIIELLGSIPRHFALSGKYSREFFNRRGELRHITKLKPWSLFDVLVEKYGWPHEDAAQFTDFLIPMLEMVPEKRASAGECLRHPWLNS
T1 sequence (Q96SB4 whole entry, species assumed): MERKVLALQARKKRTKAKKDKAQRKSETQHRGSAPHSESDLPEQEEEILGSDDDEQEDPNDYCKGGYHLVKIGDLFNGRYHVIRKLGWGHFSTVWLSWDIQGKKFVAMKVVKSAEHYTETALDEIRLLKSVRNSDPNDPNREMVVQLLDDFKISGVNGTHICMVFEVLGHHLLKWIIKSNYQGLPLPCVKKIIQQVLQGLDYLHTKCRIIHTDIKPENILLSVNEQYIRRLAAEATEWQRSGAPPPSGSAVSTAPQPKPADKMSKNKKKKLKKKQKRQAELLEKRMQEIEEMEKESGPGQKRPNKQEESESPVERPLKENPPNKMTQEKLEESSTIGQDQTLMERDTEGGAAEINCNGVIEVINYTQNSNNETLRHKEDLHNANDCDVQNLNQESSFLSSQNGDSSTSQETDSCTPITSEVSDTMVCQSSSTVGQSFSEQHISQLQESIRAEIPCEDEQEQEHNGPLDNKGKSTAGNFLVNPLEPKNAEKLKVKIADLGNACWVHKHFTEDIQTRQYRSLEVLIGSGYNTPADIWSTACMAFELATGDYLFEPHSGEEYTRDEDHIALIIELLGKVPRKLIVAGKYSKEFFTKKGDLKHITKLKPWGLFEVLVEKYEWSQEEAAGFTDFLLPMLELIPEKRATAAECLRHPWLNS
Chain of PRP4 (Q13523 whole entry): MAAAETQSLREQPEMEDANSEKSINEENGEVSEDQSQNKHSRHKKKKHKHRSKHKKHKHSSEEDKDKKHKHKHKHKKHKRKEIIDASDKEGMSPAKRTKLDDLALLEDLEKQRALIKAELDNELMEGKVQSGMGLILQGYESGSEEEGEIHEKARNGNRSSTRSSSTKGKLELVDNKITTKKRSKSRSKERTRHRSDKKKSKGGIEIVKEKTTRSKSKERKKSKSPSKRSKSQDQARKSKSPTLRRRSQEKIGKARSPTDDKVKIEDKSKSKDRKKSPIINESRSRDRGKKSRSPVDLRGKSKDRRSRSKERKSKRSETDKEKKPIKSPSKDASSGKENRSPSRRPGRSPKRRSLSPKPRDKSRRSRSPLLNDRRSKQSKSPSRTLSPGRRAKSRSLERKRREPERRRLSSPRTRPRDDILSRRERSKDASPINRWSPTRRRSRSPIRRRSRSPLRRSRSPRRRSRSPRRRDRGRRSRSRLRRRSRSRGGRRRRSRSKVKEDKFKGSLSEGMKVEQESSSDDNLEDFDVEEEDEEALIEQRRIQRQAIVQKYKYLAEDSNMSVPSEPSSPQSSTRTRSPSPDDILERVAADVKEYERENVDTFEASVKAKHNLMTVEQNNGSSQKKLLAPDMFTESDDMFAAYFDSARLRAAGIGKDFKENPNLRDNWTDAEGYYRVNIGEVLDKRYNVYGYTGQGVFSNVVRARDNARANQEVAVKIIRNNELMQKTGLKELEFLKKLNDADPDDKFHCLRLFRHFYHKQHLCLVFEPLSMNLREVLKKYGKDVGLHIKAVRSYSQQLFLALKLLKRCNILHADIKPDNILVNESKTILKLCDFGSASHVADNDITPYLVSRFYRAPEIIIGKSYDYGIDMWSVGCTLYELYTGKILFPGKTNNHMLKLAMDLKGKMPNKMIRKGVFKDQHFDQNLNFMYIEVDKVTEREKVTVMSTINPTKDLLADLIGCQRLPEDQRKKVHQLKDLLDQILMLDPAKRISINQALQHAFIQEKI

O=C(Nc1cc(C(F)(F)F)ccc1N1CCCCC1)c1ccncc1 [Compound No. 340, N-[2-(1-piperidinyl)-5-(trifluoromethyl)phenyl]isonicotinamide]
inhibitory effect on PKA (PKA): did not exhibit an inhibitory effect
SARS virus propagation, concentration dependence (plaque assay) (SARS virus (FFM-1)): suppress SARS virus propagation in a concentration-dependent manner
SARS virus propagation (plaque assay) (SARS virus (FFM-1); Vero cells, 40 μM, 48 hours): significantly suppressed SARS virus propagation
viral propagation-suppressing effect compared with Compound No. 349 (SARS virus (FFM-1); Vero cells, SARS virus): stronger than that of the analog compound (Compound No. 349)
morphological changes and cell death caused by cytomegalovirus infection (Cytomegalovirus; 20 μM, seven days after infection): neither abnormal morphological changes nor cell death were detectable
morphological changes induced by the compound (Cytomegalovirus; 40 μM): Partial morphological changes thought to be induced by SRPIN-1 were detectable
inhibitory effect on PRP4 (PRP4): did not exhibit an inhibitory effect
increase in the number of cells with structural and numerical chromosomal abnormalities ([1]; continuous treatment method (24 hours), 5, 1.58, or 0.5 mg/ml): negative (When the frequency of cell abnormality was less than 5%, the testing substance was judged to be negative)
increase in the number of cells with structural and numerical chromosomal abnormalities ([1]; short treatment method (+S9 mix, six hours), 5, 1.58, or 0.5 mg/ml): negative (When the frequency of cell abnormality was less than 5%, the testing substance was judged to be negative)
cell damage caused by sindbis virus propagation (sindbis virus): dramatically suppressed
propagation of sindbis virus (plaque assay) (sindbis virus): significantly suppressed the propagation of sindbis virus in a concentration-dependent manner
effect in suppressing HIV replication (HIVp24) (HIV; MT-4 cells, 5, 10, or 20 μM): strong effects in suppressing HIV propagation
amount of HIVp24 (HIV; MT-4 cells, SRPIN-1 0.5, 10, or 20 μM): decreased in an SRPIN-1 concentration-dependent manner
inhibitory effect on SRPK2 (SRPK2): did not exhibit an inhibitory effect
inhibitory effect on PKC (PKC): did not exhibit an inhibitory effect
IC50 (SRPK1): ~0.4 µM
HA antibody signal (HA-SRp75) (SRp75 protein): weakened depending on the concentration of SRPIN-1
death (Slc:SD rats; oral 2000 mg/kg, observed for 14 days): none of the male and female rats died
death (Slc:SD rats; oral 125, 250, 500, 1000, or 2000 mg/kg, two days after administration): None of the male and female rats died
general condition (Slc:SD rats; rat, in vivo, po, 2000 mg/kg): no abnormalities were detectable in their general condition

Reference: patent publication US8816089B2, “Methods for controlling SR protein phosphorylation, and antiviral agents whose active ingredients comprise agents that control SR protein activity” (priority 2003, dated 2014)
